Like-named read-outs stand apart in the source and are kept apart here. Numbered stars: 1 amine (or outer) side, 2 acyl side, 3 side chain; on linkers, the order of the positions; unused ones are H or OH. Square brackets hold non-standard residues; d marks the D form. Side chains are listed from the residue outwards. Peptide text beside a SMILES is read from it. * marks the point of attachment. Decanoyl(10-(4-HOOC-PhO)) = O=C(O)c1ccc(OCCCCCCCCCC(=O)*)cc1; γGlu = O=C(O)[C@H](CCC(=O)[*:2])N[*:1]; C14 diacid = O=C(O)CCCCCCCCCCCCC(=O)*; AEEA = NCCOCCOCC(=O)O; Aib = CC(C)(N)C(=O)O
Assays:
[1] = Estimate of oral bioavailability: gut injection in rat (caprate), exposure in plasma; assay type: in vivo; conditions: injection in jejunum, 1000 uM in 55 mg/ml sodium caprate, plasma concentration (pM) at 30 min divided by dosing solution concentration (μM), mean n=4
In short: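 Male Sprague Dawley rats (~240 g, n=4) received 100 μl of 1000 uM derivative in 55 mg/ml sodium caprate by catheter into proximal or mid jejunum. Tail-vein EDTA plasma was sampled up to 240 min. Peptide was quantified by two-antibody bead chemiluminescence immunoassay, giving mean concentration-time profiles (pmol/l).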

[2] = biological target: T1, human GLP-1 receptor (Homo sapiens, UniProt P43220); assay: GLP-1 receptor binding: displacement of 125I-GLP-1 (SPA) at low and high albumin; conditions: for Ratio [(IC50/nM) high HSA]/[(IC50/nM) low HSA]: 2.0% HSA vs 0.001% HSA
T1 construct: expressed in transfected cells; membranes
T1 sequence (P43220 24-463): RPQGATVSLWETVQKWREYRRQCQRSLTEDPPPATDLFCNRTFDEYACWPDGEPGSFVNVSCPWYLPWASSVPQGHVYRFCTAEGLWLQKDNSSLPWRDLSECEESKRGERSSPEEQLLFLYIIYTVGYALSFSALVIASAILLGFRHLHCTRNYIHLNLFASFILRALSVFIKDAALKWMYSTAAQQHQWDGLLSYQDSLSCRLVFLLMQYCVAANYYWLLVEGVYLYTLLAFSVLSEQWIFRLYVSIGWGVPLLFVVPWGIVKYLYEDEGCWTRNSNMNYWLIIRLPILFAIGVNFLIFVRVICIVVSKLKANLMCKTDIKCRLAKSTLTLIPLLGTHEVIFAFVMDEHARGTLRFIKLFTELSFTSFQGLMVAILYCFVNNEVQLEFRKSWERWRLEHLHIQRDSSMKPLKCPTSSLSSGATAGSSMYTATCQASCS
Method: The purpose of this experiment is to investigate the binding to the GLP-1 receptor of the GLP-1 derivatives, and how the binding is potentially influenced by the presence of albumin. This is done in an in vitro experiment as described below.
In order to test the binding of the derivatives to albumin, the assay was performed with a low concentration of albumin (0.001%—corresponding to the residual amount thereof in the tracer), as well as with a high concentration of albumin (2.0% added). A shift in the binding affinity, IC50, is an indication that the peptide in question binds to albumin, and thereby a prediction of a potential protracted pharmacokinetic profile of the peptide in question in animal models.
Species (in vitro): Hamster
Biological End Point: Receptor Binding
A stable transfected cell line and a high expressing clone were selected for screening. The cells were grown at 5% CO2 in DMEM, 10% FCS, 1% Pen/Strep (Penicillin/Streptomycin) and 1.0 mg/ml of the selection marker G418.
The cells (approx. 80% confluence) were washed twice in PBS and harvested with Versene (aqueous solution of the tetrasodium salt of ethylenediaminetetraacetic acid), following which they were separated by centrifugation at 1000 rpm for 5 min. The cells/cell pellet must be kept on ice to the extent possible in the subsequent steps. The cell pellet was homogenised with Ultrathurrax for 20-30 seconds in a suitable amount of Buffer 1 (depending on the amount of cells, but e.g. 10 ml). The homogenate was centrifuged at 20000 rpm for 15 minutes. The pellet was resuspended (homogenised) in 10 ml Buffer 2 and re-centrifuged. This step was repeated once more. The resulting pellet was resuspended in Buffer 2, and the protein concentration was determined. The membranes were stored at minus 80° C.
Buffer 1: 20 mM Na-HEPES+10 mM EDTA, pH 7.4
Buffer 2: 20 mM Na-HEPES+0.1 mM EDTA, pH 7.4
Test compounds, membranes, SPA-particles and [^125I]-GLP-1(7-36)NH2 were diluted in assay buffer. 50 ul (micro liter) HSA (“high albumin” experiment containing 2% HSA), or buffer (“low albumin” experiment containing 0.001% HSA), was added to Optiplate, and 25 ul of test compounds were added. 5-10 ug membrane protein/sample was added (50 ul) corresponding to 0.1-0.2 mg protein/ml (to be preferably optimised for each membrane preparation). SPA-particles (Wheatgerm agglutinin SPA beads, Perkin Elmer, #RPNQ0001) were added in an amount of 0.5 mg/well (50 ul). The incubation was started with [^125I]-GLP-1]-(7-36)NH2 (final concentration 0.06 nM corresponding to 49.880 DPM, 25 ul). The plates were sealed with PlateSealer and incubated for 120 minutes at 30° C. while shaking. The plates were centrifuged (1500 rpm, 10 min) and counted in Topcounter.

[3] = low albumin, 0.001% HSA, read-out: IC50/nM (low HSA)
[4] = high albumin, 2.0% HSA, read-out: IC50/nM (high HSA)

IC50 [2, 3]	SMILES	Dose-corrected exposure at 30 min [1]	IC50 [2, 4]	Ratio [(IC50/nM) high HSA]/[(IC50/nM) low HSA] [2]
0.2 nM	CC[C@H](C)[C@H](NC(=O)[C@H](Cc1ccccc1)NC(=O)[C@H](CCCCNC(=O)COCCOCCNC(=O)COCCOCCNC(=O)CC[C@H](NC(=O)CCCCCCCCCCCCC(=O)O)C(=O)O)NC(=O)[C@H](CCCNC(=N)N)NC(=O)[C@@H](NC(=O)[C@H](C)NC(=O)[C@H](CCC(N)=O)NC(=O)CNC(=O)[C@H](CCC(=O)O)NC(=O)[C@H](CC(C)C)NC(=O)[C@H](Cc1ccc(O)cc1)NC(=O)[C@H](CO)NC(=O)[C@H](CO)NC(=O)[C@@H](NC(=O)[C@H](CC(=O)O)NC(=O)[C@H](CO)NC(=O)[C@@H](NC(=O)[C@H](Cc1ccccc1)NC(=O)[C@@H](NC(=O)CNC(=O)[C@H](CCC(=O)O)NC(=O)[C@H](C)NC(=O)[C@@H](N)Cc1c[nH]cn1)[C@@H](C)O)[C@@H](C)O)C(C)C)C(C)C)C(=O)N[C@@H](C)C(=O)N[C@@H](Cc1c[nH]cn1)C(=O)N[C@@H](CC(C)C)C(=O)N[C@H](C(=O)N[C@@H](CCC(N)=O)C(=O)NCC(=O)N[C@@H](CCCNC(=N)N)C(=O)N[C@@H](CCCCNC(=O)COCCOCCNC(=O)COCCOCCNC(=O)CC[C@H](NC(=O)CCCCCCCCCCCCC(=O)O)C(=O)O)C(=O)O)C(C)C [Example 16, N^ε27-[2-[2-[2-[[2-[2-[2-[[(4S)-4-carboxy-4-(13-carboxytridecanoylamino)butanoyl]amino]ethoxy]ethoxy]acetyl]amino]ethoxy]ethoxy]acetyl], N^ε37-[2-[2-[2-[[2-[2-[2-[[(4S)-4-carboxy-4-(13-carboxytridecanoylamino)butanoyl]amino]ethoxy]ethoxy]acetyl]amino]ethoxy]ethoxy]acetyl]-[Val^25,Arg^26,Lys^27,His^31,Gln^34,Lys^37]-GLP-1-(7-37)-peptide] (H-HAEGTFTSDVSSYLEGQAVRK([AEEA-AEEA-γGlu-C14 diacid])FIAHLVQGRK([AEEA-AEEA-γGlu-C14 diacid])-OH; N-terminus and C-terminus assumed)	115	–	–
–	CC[C@H](C)[C@H](NC(=O)[C@H](Cc1ccccc1)NC(=O)[C@H](CCCCNC(=O)COCCOCCNC(=O)COCCOCCNC(=O)CC[C@H](NC(=O)CCCCCCCCCOc1ccc(C(=O)O)cc1)C(=O)O)NC(=O)[C@H](CCCNC(=N)N)NC(=O)[C@H](C)NC(=O)[C@H](C)NC(=O)[C@H](CCC(N)=O)NC(=O)[C@H](CCC(=O)O)NC(=O)[C@H](CCC(=O)O)NC(=O)[C@H](CC(C)C)NC(=O)[C@H](Cc1ccc(O)cc1)NC(=O)[C@H](CO)NC(=O)[C@H](CO)NC(=O)[C@@H](NC(=O)[C@H](CC(=O)O)NC(=O)[C@H](CO)NC(=O)[C@@H](NC(=O)[C@H](Cc1ccccc1)NC(=O)[C@@H](NC(=O)CNC(=O)[C@H](CCC(=O)O)NC(=O)[C@H](C)NC(=O)[C@@H](N)Cc1c[nH]cn1)[C@@H](C)O)[C@@H](C)O)C(C)C)C(=O)N[C@@H](C)C(=O)N[C@@H](Cc1c[nH]c2ccccc12)C(=O)N[C@@H](CC(C)C)C(=O)N[C@H](C(=O)N[C@@H](CCCNC(=N)N)C(=O)NCC(=O)N[C@@H](CCCCNC(=O)COCCOCCNC(=O)COCCOCCNC(=O)CC[C@H](NC(=O)CCCCCCCCCOc1ccc(C(=O)O)cc1)C(=O)O)C(=O)O)C(C)C [Example 3, N^ε27-[2-[2-[2-[[2-[2-[2-[[(4S)-4-carboxy-4-[10-(4-carboxyphenoxy)decanoylamino]butanoyl]amino]ethoxy]ethoxy]acetyl]amino]ethoxy]ethoxy]acetyl], N^ε36-[2-[2-[2-[[2-[2-[2-[[(4S)-4-carboxy-4-[10-(4-carboxyphenoxy)decanoylamino]butanoyl]amino]ethoxy]ethoxy]acetyl]amino]ethoxy]ethoxy]acetyl]-[Glu^22,Arg^26,Lys^27,Arg^34,Lys^36],des-Gly37-GLP-1-(7-36)-peptide] (H-HAEGTFTSDVSSYLEEQAARK([AEEA-AEEA-γGlu-Decanoyl(10-(4-HOOC-PhO))])FIAWLVRGK([AEEA-AEEA-γGlu-Decanoyl(10-(4-HOOC-PhO))])-OH; N-terminus and C-terminus assumed)	67	29 nM	–
–	CC[C@H](C)[C@H](NC(=O)[C@H](Cc1ccccc1)NC(=O)[C@H](CCCCNC(=O)COCCOCCNC(=O)COCCOCCNC(=O)CC[C@H](NC(=O)CCCCCCCCCOc1ccc(C(=O)O)cc1)C(=O)O)NC(=O)[C@H](CCCNC(=N)N)NC(=O)[C@H](C)NC(=O)[C@H](C)NC(=O)[C@H](CCC(N)=O)NC(=O)[C@H](CCC(=O)O)NC(=O)[C@H](CCC(=O)O)NC(=O)[C@H](CCCCNC(=O)COCCOCCNC(=O)COCCOCCNC(=O)CC[C@H](NC(=O)CCCCCCCCCOc1ccc(C(=O)O)cc1)C(=O)O)NC(=O)[C@H](Cc1ccc(O)cc1)NC(=O)[C@H](CO)NC(=O)[C@H](CO)NC(=O)[C@@H](NC(=O)[C@H](CC(=O)O)NC(=O)[C@H](CO)NC(=O)[C@@H](NC(=O)[C@H](Cc1ccccc1)NC(=O)[C@@H](NC(=O)CNC(=O)[C@H](CCC(=O)O)NC(=O)C(C)(C)NC(=O)[C@@H](N)Cc1c[nH]cn1)[C@@H](C)O)[C@@H](C)O)C(C)C)C(=O)N[C@@H](CCC(=O)O)C(=O)N[C@@H](Cc1c[nH]c2ccccc12)C(=O)N[C@@H](CC(C)C)C(=O)N[C@H](C(=O)NCC(=O)O)C(C)C [Example 5, N^ε20-[2-[2-[2-[[2-[2-[2-[[(4S)-4-carboxy-4-[10-(4-carboxyphenoxy)decanoylamino]butanoyl]amino]ethoxy]ethoxy]acetyl]amino]ethoxy]ethoxy]acetyl], N^ε27-[2-[2-[2-[[2-[2-[2-[[(4S)-4-carboxy-4-[10-(4-carboxyphenoxy)decanoylamino]butanoyl]amino]ethoxy]ethoxy]acetyl]amino]ethoxy]ethoxy]acetyl]-[Aib^8,Lys^20,Glu^22,Arg^26,Lys^27,Glu^30,Gly^34]-GLP-1-(7-34)-peptide] (H-H[Aib]EGTFTSDVSSYK([AEEA-AEEA-γGlu-Decanoyl(10-(4-HOOC-PhO))])EEQAARK([AEEA-AEEA-γGlu-Decanoyl(10-(4-HOOC-PhO))])FIEWLVG-OH)	124	–	79
0.19 nM	CC[C@H](C)[C@H](NC(=O)[C@H](Cc1ccccc1)NC(=O)[C@H](CCCCNC(=O)COCCOCCNC(=O)COCCOCCNC(=O)CC[C@H](NC(=O)CCCCCCCCCCCCC(=O)O)C(=O)O)NC(=O)[C@H](CCCNC(=N)N)NC(=O)[C@@H](NC(=O)[C@H](C)NC(=O)[C@H](CCC(N)=O)NC(=O)CNC(=O)[C@H](CCC(=O)O)NC(=O)[C@H](CC(C)C)NC(=O)[C@H](Cc1ccc(O)cc1)NC(=O)[C@H](CO)NC(=O)[C@H](CO)NC(=O)[C@@H](NC(=O)[C@H](CC(=O)O)NC(=O)[C@H](CO)NC(=O)[C@@H](NC(=O)[C@H](Cc1ccccc1)NC(=O)[C@@H](NC(=O)CNC(=O)[C@H](CCC(=O)O)NC(=O)C(C)(C)NC(=O)[C@@H](N)Cc1c[nH]cn1)[C@@H](C)O)[C@@H](C)O)C(C)C)C(C)C)C(=O)N[C@@H](C)C(=O)N[C@@H](Cc1c[nH]cn1)C(=O)N[C@@H](CC(C)C)C(=O)N[C@H](C(=O)N[C@@H](CCC(N)=O)C(=O)NCC(=O)N[C@@H](CCCNC(=N)N)C(=O)N[C@@H](CCCCNC(=O)COCCOCCNC(=O)COCCOCCNC(=O)CC[C@H](NC(=O)CCCCCCCCCCCCC(=O)O)C(=O)O)C(=O)O)C(C)C [Example 15, N^ε27-[2-[2-[2-[[2-[2-[2-[[(4S)-4-carboxy-4-(13-carboxytridecanoylamino)butanoyl]amino]ethoxy]ethoxy]acetyl]amino]ethoxy]ethoxy]acetyl], N^ε37-[2-[2-[2-[[2-[2-[2-[[(4S)-4-carboxy-4-(13-carboxytridecanoylamino)butanoyl]amino]ethoxy]ethoxy]acetyl]amino]ethoxy]ethoxy]acetyl]-[Aib^8,Val^25,Arg^26,Lys^27,His^31,Gln^34,Lys^37]-GLP-1-(7-37)-peptide] (H-H[Aib]EGTFTSDVSSYLEGQAVRK([AEEA-AEEA-γGlu-C14 diacid])FIAHLVQGRK([AEEA-AEEA-γGlu-C14 diacid])-OH)	98	29 nM	155
